# From patent US20100035753A1, “Fungicidal Mixtures Comprising Substituted 1-methylpyrazol-4-ylcarboxanilides” (BASF SE, priority 2007, published 2010)
# Like-named read-outs stand apart in the source and are kept apart here.
# Legend:
# Phytophthora infestans [1] = assay type: cell-based
# Pyrenophora teres = experiment: Use Example 7: control of net blotch on barley; assay type: in vivo, Pyrenophora (syn. Drechslera) teres
# Protocol: (§1) The active compounds, separately or jointly, were prepared as a stock solution comprising 25 mg of active compound which was made up to 10 ml using a mixture of acetone and/or DMSO and the emulsifier Uniperol® EL (wetting agent having an emulsifying and dispersing action based on ethoxylated alkylphenols) in a ratio by volume of solvent/emulsifier of 99:1. The mixture was then made up to 100 ml with water. This stock solution was diluted with the solvent/emulsifier/water mixture described to give the concentration of active compound stated below.
# (§2) The visually determined percentages of infected leaf areas were converted into efficacies in % of the untreated control:
# (§3) The efficacy (E) is calculated as follows using Abbot's formula: […]
# (§4) The expected efficacies of active compound combinations were determined using Colby's formula (Colby, S. R. “Calculating synergistic and antagonistic responses of herbicide combinations”, Weeds, 15, pp. 20-22, 1967) and compared with the observed efficacies. […]
# The first fully developed leaves of pot grown barley plants were sprayed to run-off with an aqueous suspension, containing the concentration of active ingredient or their mentioned in the table below. […] After 6 days of cultivation at 20-24° C. and a relative humidity close to 70%, the extent of fungal attack on the leaves was visually assessed as % leaf area.
# Phytophthora infestans [2] = assay type: cell-based; remark: listed apart in the source
# Phytophthora infestans [3] = assay type: in vivo
# Alternaria solani = experiment: Use Example 1: preventative fungicidal control of early blight on tomatoes; assay type: in vivo; details: 0.25 ppm
# Protocol: as §1, §2, §3
# (§5) α corresponds to the fungicidal infection of the treated plants in % and
# (§6) β corresponds to the fungicidal infection of the untreated (control) plants in %
# (§7) An efficacy of 0 means that the infection level of the treated plants corresponds to that of the untreated control plants; an efficacy of 100 means that the treated plants were not infected.
# (§8) The expected efficacies of active compound combinations were determined using Colby's formula (Colby, S. R. “Calculating synergistic and antagonistic responses of herbicide combinations”, Weeds, 15, pp. 20-22, 1967) and compared with the observed efficacies.
# (§9) Colby's formula: E=x+y−x·y/100 • E expected efficacy, expressed in % of the untreated control, when using the mixture of the active compounds A and B at the concentrations a and b • x efficacy, expressed in % of the untreated control, when using the active compound A at the concentration a • y efficacy, expressed in % of the untreated control, when using the active compound B at the concentration b
# Young seedlings of tomato plants were grown in pots. […] After 5 days at 20 to 22° C. and a relative humidity close to 100%, the extent of fungal attack on the leaves was visually assessed as % diseased leaf area.
# Puccinia recondita [4] = experiment: Use Example 5: curative control of brown rust on wheat; assay type: in vivo
# Protocol: as §1, §2, §3, §5, §6, §7, §8, §9
# The first two developed leaves of pot-grown wheat seedling were dusted with spores of Puccinia recondita. To ensure the success the artificial inoculation, the plants were transferred to a humid chamber without light and a relative humidity of 95 to 99% and 20 to 22° C. for 24 h. The next day the plants were sprayed to run-off with an aqueous suspension, containing the concentration of active ingredient or their mixture as described below. The plants were allowed to air-dry. Then the trial plants were cultivated for 8 days in a greenhouse chamber at 22-26° C. and a relative humidity between 65 and 70%. The extent of fungal attack on the leaves was visually assessed as % diseased leaf area.
# Botrytis cinerea [5] = experiment: Use Example 2: preventative control of grey mold on leaves of green pepper; assay type: in vivo; details: 4 ppm
# Protocol: as §1, §2, §3, §5
# (§10) β corresponds to the fungicidal infection of the untreated (control) plants in % […]
# as §4
# Young seedlings of green pepper were grown in pots to the 2 to 3 leaf stage. […] After 5 days at 22 to 24° C. and a relative humidity close to 100% the extent of fungal attack on the leaves was visually assessed as % diseased leaf area.
# Septoria tritici [6] = tested on: Septoria tritici
# Puccinia recondita [7] = experiment: Use Example 6: preventative control of brown rust on wheat; assay type: in vivo; details: 0.25 ppm
# Protocol: as §1, §2, §3
# α corresponds to the fungicidal infection of the treated plants in % and […]
# as §4
# The first two developed leaves of pot-grown wheat seedling were sprayed to run-off with an aqueous suspension, containing the concentration of active ingredient or their as described below. […] The extent of fungal attack on the leaves was visually assessed as % diseased leaf area.
# Pyricularia oryzae [8] = assay type: cell-based; details: 0.25 ppm
# [9] = tested on: Ramularia collo-cygni/Physiological leaf spots; experiment: Control of phytopathogenic fungi in barley (statement in the description); assay type: in vivo; details: solo or in combination with an active compound II
# Botrytis cinerea [10] = experiment: Use Example 9.2: activity against grey mold in the microtiterplate test; assay type: cell-based
# Phakopsora pachyrhizi = experiment: Use Example 8: curative control of soy bean rust on soy beans; assay type: in vivo; details: 0.25 ppm
# Protocol: as §1, §2, §3, §5, §10, §4
# Leaves of pot-grown soy bean seedlings were inoculated with spores of Phakopsora pachyrhizi. […] The extent of fungal attack on the leaves was visually assessed as % diseased leaf area.
# [11] = tested on: Blumeria graminis f. sp. tritici; experiment: Use Example 4: control of powdery mildew on wheat; assay type: in vivo; details: 0.25 ppm
# Protocol: as §1, §2, §3, §4
# The first fully developed leaves of pot grown wheat were sprayed to run-off with an aqueous suspension, containing the concentration of active ingredient or their mixture mentioned in the table below. […] After cultivation in the greenhouse for 7 days at 22-26° C. and a relative humidity between 60 to 90% the extent of fungal attack on the leaves was visually assessed as % diseased leaf area.
# Septoria tritici [12] = experiment: Use Example 13: control of Septoria tritici; assay type: cell-based
# Pyricularia oryzae [13] = assay type: cell-based
compound,measurement,setting,value
CCOC(=O)C1CC(=O)C(=C(O)C2CC2)C(=O)C1 (centres unmarked) [Trinexapac-ethyl],Observed activity (% infection),Phytophthora infestans [1]; 63 ppm,39%
"CCN(C)C=Nc1cc(C)c(Oc2ccc(Cl)c(C(F)(F)F)c2)cc1C [N′-(4-(4-chloro-3-trifluoromethyl-phenoxy)-2,5-dimethyl-phenyl)-N-ethyl-N-methyl formamidine]",Observed efficacy (% of untreated control),Pyrenophora teres; 0.25 ppm,25%
same,Observed activity (% infection),Phytophthora infestans [2]; 4 ppm,33%
same,Observed activity (% infection),Phytophthora infestans [3]; 1 ppm,0%
same,Observed fungicidal efficacy (% of untreated control),Alternaria solani,22%
Clc1ccc(C2(Cn3cncn3)OCCO2)c(Cl)c1 [azaconazole],Observed efficacy (% of untreated control),Puccinia recondita [4]; 0.25 ppm,0%
same,Observed efficacy (% of untreated control),Botrytis cinerea [5],0%
same,Observed activity,Septoria tritici [6]; 0.016 ppm,19%
same,Observed efficacy (% of untreated control),Puccinia recondita [7],0%
same,Observed activity (% infection),Phytophthora infestans [3]; 4 ppm,0%
same,Observed fungicidal efficacy (% of untreated control),Alternaria solani,0%
"COC(=O)[C@@H](C)N(C(=O)Cc1ccccc1)c1c(C)cccc1C [Benalaxyl-M, benalaxyl-M, reference compound]",Observed activity (%),Pyricularia oryzae [8],0%
same,Observed activity (% infection),Phytophthora infestans [2]; 16 ppm,18%
"Cn1cc(C(=O)Nc2ccc(F)cc2-c2ccc(Cl)c(Cl)c2)c(C(F)F)n1 [N-(3′,4′-dichloro-5-fluorobiphenyl-2-yl)-1-methyl-3-difluoromethyl-1H-pyrazole-4-carboxamide]",activity against Ramularia collo-cygni/Physiological leaf spots,[9],excellent activity
O=C(NCCc1ncc(C(F)(F)F)cc1Cl)c1ccccc1C(F)(F)F [fluopyram],Observed activity (%),Botrytis cinerea [10]; 0.004 ppm,4%
Clc1cccc(C(Cl)(Cl)Cl)n1 [nitrapyrin],Observed activity (%),Botrytis cinerea [10]; 0.016 ppm,10%
"Cc1nn(C)c(F)c1C(=O)Nc1ccccc1C(C)CC(C)C (centres unmarked) [N-(2-(1,3-dimethylbutyl)-phenyl)-1,3-dimethyl-5-fluoro-1H-pyrazole-4-carboxylic acid amide]",Observed efficacy (% of untreated control),Puccinia recondita [4]; 0.25 ppm,0%
same,Observed efficacy (% of untreated control),Puccinia recondita [4]; 1 ppm,0%
same,Observed efficacy (% of untreated control),Botrytis cinerea [5],0%
same,Observed activity,Septoria tritici [6]; 0.004 ppm,1%
same,Observed efficacy (% of untreated control),Phakopsora pachyrhizi,60%
same,Observed activity (% infection),Phytophthora infestans [3]; 1 ppm,0%
same,Observed activity (% infection),Phytophthora infestans [3]; 4 ppm,0%
"CCN(C)C=Nc1cc(C)c(Oc2ccc(F)c(C(F)(F)F)c2)cc1C [N′-(4-(4-fluoro-3-trifluoromethyl-phenoxy)-2,5-dimethyl-phenyl)-N-ethyl-N-methyl formamidine]",Observed efficacy (% of untreated control),Puccinia recondita [4]; 0.25 ppm,67%
same,Observed efficacy (% of untreated control),Pyrenophora teres; 1 ppm,13%
same,Observed efficacy (% of untreated control),[11],38%
same,Observed activity (% infection),Phytophthora infestans [3]; 16 ppm,0%
same,Observed fungicidal efficacy (% of untreated control),Alternaria solani,0%
CCOC(=O)C1CC(=O)C(=C(O)C2CC2)C(=O)C1 (centres unmarked) [trinexapac-ethyl],Observed fungicidal efficacy (%),Septoria tritici [12]; 4 ppm,2%
same,Observed activity (%),Pyricularia oryzae [13]; 4 ppm,2%
C[N+]1(C)CCCCC1 [Mepiquat-chloride],Observed activity (% infection),Phytophthora infestans [1]; 63 ppm,14%
CC1CCCCN1CCCOC(=O)c1ccc(Cl)c(Cl)c1 (centres unmarked) [piperalin],Observed activity (%),Botrytis cinerea [10]; 0.016 ppm,12%
CCC(=O)C1=C([O-])CC(C(=O)[O-])CC1=O.[Ca+2] (centres unmarked) [prohexadione-Ca],Observed fungicidal efficacy (%),Septoria tritici [12]; 0.25 ppm,0%
same,Observed activity (%),Pyricularia oryzae [13]; 0.25 ppm,0%
CCC(=O)C1=C([O-])CC(C(=O)[O-])CC1=O.[Ca+2] (centres unmarked) [Prohexadione-Ca],Observed activity (% infection),Phytophthora infestans [1]; 16 ppm,17%
